Assay results as given in ChEMBL document CHEMBL1152692, “Synthesis and evaluation of ligands for D2-like receptors: the role of common pharmacophoric groups” (Bioorg Med Chem, 2009).
Calls of active or inactive are those of the source. The calls are words filed in the database; no cut-off is given here.

Legend:
D(3) dopamine receptor [1] = target: T1, D(3) dopamine receptor (Homo sapiens, UniProt P35462)
[2] = target: T2, D(4) dopamine receptor (Homo sapiens) (UniProt P21917)
T2 sequence (whole entry): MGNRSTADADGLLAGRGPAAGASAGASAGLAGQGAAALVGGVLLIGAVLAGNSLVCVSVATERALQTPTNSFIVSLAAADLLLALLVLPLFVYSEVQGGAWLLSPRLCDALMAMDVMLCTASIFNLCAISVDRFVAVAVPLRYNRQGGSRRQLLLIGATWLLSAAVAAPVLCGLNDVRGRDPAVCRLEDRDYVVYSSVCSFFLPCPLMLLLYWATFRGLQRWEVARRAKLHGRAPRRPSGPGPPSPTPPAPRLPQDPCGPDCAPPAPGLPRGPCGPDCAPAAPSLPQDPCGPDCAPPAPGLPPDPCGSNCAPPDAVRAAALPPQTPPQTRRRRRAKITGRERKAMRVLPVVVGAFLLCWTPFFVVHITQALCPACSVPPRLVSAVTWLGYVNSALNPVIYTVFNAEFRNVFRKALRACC

D(2) dopamine receptor [3] = target: T3, D(2) dopamine receptor (Homo sapiens, UniProt P14416)
D(2) dopamine receptor [4] = target: T3, D(2) dopamine receptor; remark: listed apart in the source
D(4) dopamine receptor = target: T4, D(4) dopamine receptor (Homo sapiens, UniProt P21917)
T4 sequence (P21917 whole entry): T2 sequence (whole entry)

D(3) dopamine receptor [5] = target: T1, D(3) dopamine receptor; remark: listed apart in the source

T1 sequence (P35462 whole entry): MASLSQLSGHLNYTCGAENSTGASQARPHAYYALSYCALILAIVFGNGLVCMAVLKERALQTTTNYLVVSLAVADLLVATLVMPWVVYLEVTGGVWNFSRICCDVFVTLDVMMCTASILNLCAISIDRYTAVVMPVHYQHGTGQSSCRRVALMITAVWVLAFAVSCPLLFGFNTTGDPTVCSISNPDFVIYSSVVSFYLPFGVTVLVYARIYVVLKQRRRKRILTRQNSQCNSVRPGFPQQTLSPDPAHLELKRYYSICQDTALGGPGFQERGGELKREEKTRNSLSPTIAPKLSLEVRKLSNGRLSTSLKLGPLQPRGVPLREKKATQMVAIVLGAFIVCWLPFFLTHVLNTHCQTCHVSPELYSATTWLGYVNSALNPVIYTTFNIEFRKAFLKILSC
T3 sequence (P14416 whole entry): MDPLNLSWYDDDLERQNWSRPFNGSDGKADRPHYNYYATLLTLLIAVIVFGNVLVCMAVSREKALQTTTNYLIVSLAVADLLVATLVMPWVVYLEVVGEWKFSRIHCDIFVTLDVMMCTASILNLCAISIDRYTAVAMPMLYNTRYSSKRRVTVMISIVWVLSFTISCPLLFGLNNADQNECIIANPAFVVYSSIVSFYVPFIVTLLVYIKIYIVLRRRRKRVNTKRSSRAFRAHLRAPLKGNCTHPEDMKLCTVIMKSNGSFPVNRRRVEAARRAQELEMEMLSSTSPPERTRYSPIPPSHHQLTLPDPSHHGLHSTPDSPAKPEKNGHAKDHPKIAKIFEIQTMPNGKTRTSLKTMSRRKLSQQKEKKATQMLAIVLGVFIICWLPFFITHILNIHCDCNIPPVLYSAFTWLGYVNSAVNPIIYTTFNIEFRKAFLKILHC

Activity (D(2) dopamine receptor [3])	Ki (D(4) dopamine receptor) [nM]	Activity (D(3) dopamine receptor [5])	SMILES	Ki (D(3) dopamine receptor [1]) [nM]	Activity [2]	Ki (D(2) dopamine receptor [4]) [nM]
–	–	–	OC1(c2ccc(Cl)cc2)CC2CCC(C1)N2Cc1c[nH]c2ncccc12 (stereo not drawn)	–	–	588
–	18.6	–	Clc1ccc(N2CCCN(Cc3c[nH]c4ncccc34)CC2)cc1	370	–	970
–	–	–	O=C(CN1C2CCC1CC(O)(c1ccc(Cl)cc1)C2)c1ccc(F)cc1 (stereo not drawn)	> 10000	–	–
inactive	816	–	OC1(c2ccc(Cl)cc2)CCN(Cc2c[nH]c3ccccc23)C1 (stereo not drawn)	2870	–	–
–	513	–	O=C(CCCN1CC2CC1N(c1ccc(Cl)cc1)C2)c1ccc(F)cc1 (stereo not drawn)	220	–	170
–	–	–	OC1(c2ccc(Cl)cc2)CC2CCC(C1)N2CCc1c[nH]c2ccccc12 (stereo not drawn)	18	–	53
–	17	–	O=C(CCCN1CCN(c2ccc(Cl)cc2)CC1)c1ccc(F)cc1	–	–	–
–	56	–	c1cnc(N2CCN(Cc3c[nH]c4ncccc34)CC2)nc1	1500	–	1170
inactive	1210	inactive	OC1(c2ccc(Cl)cc2)CCN(Cc2c[nH]c3ncccc23)C1 (stereo not drawn)	–	–	–

SMILES	Activity (D(2) dopamine receptor [3])	Ki (D(4) dopamine receptor) [nM]	Activity (D(3) dopamine receptor [5])	Ki (D(3) dopamine receptor [1]) [nM]	Activity [2]	Ki (D(2) dopamine receptor [4]) [nM]
OC1(c2ccc(Cl)cc2)CCN(CCc2c[nH]c3ccccc23)C1 (stereo not drawn)	inactive	–	–	3070	inactive	–
O[C@]1(c2ccc(Cl)cc2)C[C@H]2CC[C@@H](C1)N2Cc1c[nH]c2ccccc12	–	3010	–	25	–	–
Clc1ccc(N2CC3CC2CN3Cc2c[nH]c3ncccc23)cc1 (stereo not drawn)	–	69	–	11	–	62
